From PubChem BioAssay (NCI)
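Step 1: Grow cells in 96-well plates. Step 2: Expose to compound for 48 hours at 5 concentrations. Step 3: Interpolate endpoints linearly; if unreached, use highest concentration. At the GI50, growth is halved. Definition used: TGI = concentration required for complete inhibition of growth.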

What was measured:
Test in all cases: NCI anticancer screen, dose series, 48 h
[1] = system: 786-0 renal
[2] = system: A498 renal
[3] = system: A549 NSCLC
[4] = system: ACHN renal
[5] = system: BT-549 breast
[6] = system: CAKI-1 renal
[7] = system: CCRF-CEM leukemia
[8] = system: COLO 205 colon
[9] = system: DU-145 prostate
[10] = system: EKVX NSCLC
[11] = system: HCC-2998 colon
[12] = system: HCT-116 colon
[13] = system: HCT-15 colon
[14] = system: HL-60(TB) leukemia
[15] = system: HOP-62 NSCLC
[16] = system: HOP-92 NSCLC
[17] = system: HS 578T breast
[18] = system: HT29 colon
[19] = system: IGROV1 ovarian
[20] = system: K-562 leukemia
[21] = system: KM12 colon
[22] = system: LOX IMVI melanoma
[23] = system: M14 melanoma
[24] = system: MALME-3M melanoma
[25] = system: MCF7 breast
[26] = system: MDA-MB-231 breast
[27] = system: MDA-MB-435
[28] = system: MDA-MB-468 breast
[29] = system: MOLT-4 leukemia
[30] = system: NCI-H226 lung
[31] = system: NCI-H23 lung
[32] = system: NCI-H460 lung
[33] = system: NCI-H522 lung
[34] = system: OVCAR-3 ovarian
[35] = system: OVCAR-4 ovarian
[36] = system: OVCAR-5 ovarian
[37] = system: OVCAR-8 ovarian
[38] = system: PC-3 prostate
[39] = system: RPMI-8226 leukemia
[40] = system: RXF 393 renal
[41] = system: SF-268 CNS
[42] = system: SF-295 CNS
[43] = system: SF-539 CNS
[44] = system: SK-MEL-2 melanoma
[45] = system: SK-MEL-28 melanoma
[46] = system: SK-MEL-5 melanoma
[47] = system: SK-OV-3 ovarian
[48] = system: SN12C renal
[49] = system: SNB-19 CNS
[50] = system: SNB-75 CNS
[51] = system: SR leukemia
[52] = system: SW-620 colon
[53] = system: T-47D breast
[54] = system: TK-10 renal
[55] = system: U251 CNS
[56] = system: UACC-257 melanoma
[57] = system: UACC-62 melanoma
[58] = system: UO-31 renal

O=C(c1ccc(O)cc1)C1[C@H](c2ccccc2Br)[C@@H](c2ccccc2)NC12C(=O)Nc1ccccc12 (stereo partly specified)
GI50 [1]: 9.47 µM
TGI [1]: 18.1 µM
GI50 [2]: 8.6 µM
TGI [2]: 16.8 µM
GI50 [3]: 8.07 µM
TGI [3]: 16.9 µM
GI50 [4]: 9.17 µM
TGI [4]: 17.8 µM
GI50 [5]: 7.23 µM
TGI [5]: 15 µM
GI50 [6]: 7 µM
TGI [6]: 15.1 µM
GI50 [7]: 10 µM
TGI [7]: 22.9 µM
GI50 [8]: 9.19 µM
TGI [8]: 17.8 µM
GI50 [9]: 10 µM
TGI [9]: 19 µM
GI50 [10]: 9.34 µM
TGI [10]: 23.2 µM
GI50 [11]: 8.48 µM
TGI [11]: 16.6 µM
GI50 [12]: 8.93 µM
TGI [12]: 18 µM
GI50 [13]: 9.43 µM
TGI [13]: 20 µM
GI50 [14]: 15.1 µM
TGI [14]: 44.7 µM
GI50 [15]: 9.37 µM
TGI [15]: 18.1 µM
GI50 [16]: 7.83 µM
TGI [16]: 16.4 µM
GI50 [17]: 9.49 µM
TGI [17]: 27.2 µM
GI50 [18]: 10.2 µM
TGI [18]: 20.5 µM
GI50 [19]: 7.29 µM
TGI [19]: 15.5 µM
GI50 [20]: 12.9 µM
TGI [20]: 40.2 µM
GI50 [21]: 9.8 µM
TGI [21]: 20.2 µM
GI50 [22]: 8.3 µM
TGI [22]: 16.2 µM
GI50 [23]: 8.94 µM
TGI [23]: 17.7 µM
GI50 [24]: 8.58 µM
TGI [24]: 16.4 µM
GI50 [25]: 10.4 µM
TGI [25]: 27.6 µM
GI50 [26]: 7.94 µM
TGI [26]: 15.8 µM
GI50 [27]: 10.5 µM
TGI [27]: 20 µM
GI50 [28]: 7.08 µM
TGI [28]: 16 µM
GI50 [29]: 7.99 µM
TGI [29]: 25 µM
GI50 [30]: 6.82 µM
TGI [30]: 15 µM
GI50 [31]: 9.23 µM
TGI [31]: 18.2 µM
GI50 [32]: 9.17 µM
TGI [32]: 17.8 µM
GI50 [33]: 8.25 µM
TGI [33]: 17.5 µM
GI50 [34]: 9.2 µM
TGI [34]: 18.3 µM
GI50 [35]: 8.72 µM
TGI [35]: 19.1 µM
GI50 [36]: 9.47 µM
TGI [36]: 18.2 µM
GI50 [37]: 9.27 µM
TGI [37]: 17.7 µM
GI50 [38]: 8.03 µM
TGI [38]: 21.3 µM
GI50 [39]: 12.8 µM
TGI [39]: 42.6 µM
GI50 [40]: 5.14 µM
TGI [40]: 12.8 µM
GI50 [41]: 7.83 µM
TGI [41]: 18.8 µM
GI50 [42]: 9.77 µM
TGI [42]: 21 µM
GI50 [43]: 9.08 µM
TGI [43]: 17.2 µM
GI50 [44]: 8.33 µM
TGI [44]: 16.2 µM
GI50 [45]: 9.1 µM
TGI [45]: 17.2 µM
GI50 [46]: 8.92 µM
TGI [46]: 16.9 µM
GI50 [47]: 11.9 µM
TGI [47]: 31.3 µM
GI50 [48]: 8.7 µM
TGI [48]: 16.6 µM
GI50 [49]: 9.03 µM
TGI [49]: 17.2 µM
GI50 [50]: 7.87 µM
TGI [50]: 19.9 µM
GI50 [51]: 9.59 µM
TGI [51]: 24 µM
GI50 [52]: 10.1 µM
TGI [52]: 19.6 µM
GI50 [53]: 10.5 µM
TGI [53]: 38.9 µM
GI50 [54]: 9.29 µM
TGI [54]: 18.8 µM
GI50 [55]: 9.11 µM
TGI [55]: 17.1 µM
GI50 [56]: 8.73 µM
TGI [56]: 16.9 µM
GI50 [57]: 7.63 µM
TGI [57]: 15.1 µM
GI50 [58]: 7.61 µM
TGI [58]: 15 µM
